{
  "source": "patent US20210015772A1",
  "about": "“PHARMACEUTICAL COMPOSITION FOR PREVENTION OR TREATMENT OF FIBROSIS” (CRYSTALGENOMICS, INC., priority 2018, published 2021)",
  "assay_type_in_all_cases": "in vivo, C57BL/6 mice",
  "key": {"[1]": {"tested_on": "kidney with acute renal failure induced after ureteral obstruction (renal fibrosis)", "experiment": "Histopathology analysis (hematoxylin and eosin) of kidney in unilateral ureteral obstruction (renal failure) mouse model", "conditions": "30 mg/kg/day intake in distilled water, day 7 after ureteral obstruction, compared to the solvent control group", "protocol": "8-week old female C57BL/6 mice were used. After opening the abdomen of C57BL/6 mice, one of two ureters was closed with 6-0 cotton yarn. After closing the ureter, the abdomen was sutured and disinfected. Immediately after surgery, the host mice were classified into the solvent control group which is the non-intake group, and the CG200745 intake group in which CG200745 dissolved in distilled water was consumed (30 mg/kg/day). On the 7th day after surgery, the solvent control group and the CG200745 intake group mice were euthanized, and then normal kidney and the kidney with acute renal failure induced after ureteral obstruction were extracted. The extracted normal kidney and kidney with acute renal failure induced were fixed with 4% paraformaldehyde, and then covered with paraffin to prepare a tissue section with a 3 μm thickness. Hematoxylin and eosin staining was conducted on the completed tissue sections to perform a histopathological analysis of renal tissues. For hematoxylin staining, kidney tissue sections were stained with Gill's hematoxylin for 5 minutes, washed with tap water, and then treated with 95% ethanol. Eosin staining was performed by staining with eosin and phloxine for 1 minute. The tissue sections were then dehydrated with ethanol and xylene and fixed with Canada balsam."}, "[2]": {"tested_on": "α-SMA (alpha-smooth muscle actin)", "experiment": "Expression level of fibrosis marker α-SMA by real-time PCR in kidney of unilateral ureteral obstruction mouse model", "conditions": "30 mg/kg intake, kidney with renal failure induced through ureteral obstruction, compared to the solvent control group", "protocol": "8-week old female C57BL/6 mice were used. After opening the abdomen of C57BL/6 mice, one of two ureters was closed with 6-0 cotton yarn. After closing the ureter, the abdomen was sutured and disinfected. Immediately after surgery, the host mice were classified into the solvent control group which is the non-intake group, and the CG200745 intake group in which CG200745 dissolved in distilled water was consumed (30 mg/kg/day). On the 7th day after surgery, the solvent control group and the CG200745 intake group mice were euthanized, and then normal kidney and the kidney with acute renal failure induced after ureteral obstruction were extracted. […]\nThe kidney cortex was homogenized with Trizol solution (Invitrogen, Carlsbad, Calif.). […] The washed RNA was dissolved in distilled water and then the concentration was determined by measuring absorbance at 260 nm (Ultraspec 2000; Pharmacia Biotech, Cambridge, UK). cDNA was produced by reverse transcription of […] RNA using oligo(dT) primer and superscript reverse transcriptase II (Invitrogen, Carlsbad, Calif.). The produced cDNA was quantified by measuring with SYBR Green using Smart Cycler II System (Cepheid, Sunnyvale, Calif.). […]"}, "[3]": {"tested_on": "bleomycin-induced pulmonary fibrosis", "experiment": "Histopathological analysis of lung (H&E, Masson's trichrome) in bleomycin-induced mouse model", "conditions": "15, 30, 60 mg/kg intraperitoneally for 2 weeks after 2 mg/kg bleomycin into the airway", "protocol": "(§1) As a bleomycin model, 7-week old female C57BL/6 mice were used, and the mice were divided into a total of 5 groups, a bleomycin-administered group, CG200745-administered groups in which CG200745 is administered at 15, 30, 60 mg/kg after administration of bleomycin, and a control group to perform the experiment. Airway incision was performed on the mice and 2 mg/kg bleomycin was injected into the airway in a volume of 50 μl. After injection, the incision site was closed with 5-0 nylon. After the injection of bleomycin, the drug was administered intraperitoneally for a total of 2 weeks. The mice were sacrificed and subjected to chest opening and then the lungs were removed and fixed with 4% paraformaldehyde. They were fixed by immersing in 4% paraformaldehyde for 48 hours at 4° C., and then a paraffin block was prepared. 4 μm of microsection was made from the paraffin-embedded tissue and attached to a slide. Hemotoxin and eosin staining and Masson's trichrome staining were performed. For hemotoxin and eosin staining, the slide was immersed in xylene twice for 5 minutes each and in 100%, 95% and 70% ethanol for 2 minutes each, and washed with running distilled water. After washing, the slide was immersed in hematoxylin for 1 minute, washed several times with running distilled water, then immersed in eosin for 30 seconds and washed several times with running distilled water. […]"}, "collagen [4]": {"tested_on": "collagen", "experiment": "Sircol assay of bronchoalveolar lavage fluid in bleomycin-induced mouse model", "conditions": "15, 30, 60 mg/kg intraperitoneally for 2 weeks after 2 mg/kg bleomycin into the airway", "protocol": "(§2) As a bleomycin model, 7-week old female C57BL/6 mice were used, and the mice were divided into a total of 5 groups, a bleomycin-administered group, CG200745-administered groups in which CG200745 is administered at 15, 30, 60 mg/kg after administration of bleomycin, and a control group to perform the experiment. Airway incision was performed on the mice and 2 mg/kg bleomycin was injected into the airway in a volume of 50 μl. After injection, the incision site was closed with 5-0 nylon. After the injection of bleomycin, the drug was administered intraperitoneally for a total of 2 weeks.\nAfter two weeks of drug administration, the skin of the airway of the mouse was incised to expose the airway and washed with 800 μl of PBS into the trachea and then 500 μl of the solution was recovered therefrom to obtain bronchoalveolar lavage fluid. The bronchoalveolar lavage fluid was centrifuged at 4° C. and 1,200 rpm for 5 minutes to obtain supernatant. 50 μl of the bronchoalveolar lavage fluid and 1 ml of sircol dye reagent were mixed for 30 minutes. After centrifugation at 4° C. and 12,000 rpm for 10 minutes, the supernatant was discarded, 750 μl of Acid-salt wash reagent was added for washing, and then centrifugation was performed at 12,000 rpm for 10 minutes. After discarding the supernatant, 1 ml of Alkali reagent was added and absorbance was measured at 555 nm."}, "[5]": {"tested_on": "α-SMA, Collagen I, PAI-1, Acetylated H3", "experiment": "Western blot of fibrosis markers and Acetylated H3 in lung tissue of bleomycin-induced mouse model", "conditions": "15, 30, 60 mg/kg intraperitoneally for 2 weeks, western blot densitometry", "protocol": "as §2\n(§3) Western blot was performed to identify makers of pulmonary fibrosis (α-SMA, collagen I, PAI-1, E-cadherin, N-cadherin) and Acetylated H3 in tissues. The mice were sacrificed, and then subjected to chest opening and the lungs were removed and stored frozen for a day, and the mouse tissues were ground to prepare a protein sample. It was subjected to SDS-PAGE and the fractionated protein sample was transferred to PVDF (polyvinylidene difluoride) membrane. […]\n(§4) With the average for two controls being 1, the relative value was recorded to conduct densitometry analysis."}, "[6]": {"tested_on": "polyhexamethylene guanidine-induced pulmonary fibrosis", "experiment": "Histopathological analysis of lung (H&E, Masson's trichrome) in polyhexamethylene guanidine-induced pulmonary fibrosis mouse model", "conditions": "15, 30, 60 mg/kg intraperitoneally for 2 weeks after 1 mg/kg polyhexamethylene guanidine into the airway", "protocol": "as §1, with “a polyhexamethylene guanidine (PHMG)” for “a bleomycin”, “a polyhexamethylene guanidine-administered” for “a bleomycin-administered”, “of polyhexamethylene guanidine,” for “of bleomycin,”, “and 1” for “and 2”, “mg/kg polyhexamethylene guanidine” for “mg/kg bleomycin”, “water.” for “water. After washing, the slide was immersed in hematoxylin for 1 minute, washed several times with running distilled water, then immersed in eosin for 30 seconds and washed several times with running distilled water.”"}, "collagen [7]": {"tested_on": "collagen", "experiment": "Sircol assay of bronchoalveolar lavage fluid in polyhexamethylene guanidine-induced pulmonary fibrosis mouse model", "conditions": "15, 30, 60 mg/kg intraperitoneally for 2 weeks after 1 mg/kg polyhexamethylene guanidine into the airway", "protocol": "as §2, with “a polyhexamethylene guanidine (PHMG)” for “a bleomycin”, “a polyhexamethylene guanidine-administered” for “a bleomycin-administered”, “of polyhexamethylene guanidine,” for “of bleomycin,”, “and 1” for “and 2”, “mg/kg polyhexamethylene guanidine” for “mg/kg bleomycin”\nAfter two weeks of drug administration, the skin of the airway of the mouse was incised to expose the airway and washed with 800 μl of PBS into the trachea and then 500 μl of the solution was recovered therefrom to obtain bronchoalveolar lavage fluid. The bronchoalveolar lavage fluid was centrifuged at 4° C. and 1,200 rpm for 5 minutes to obtain supernatant. 50 μl of the bronchoalveolar lavage fluid and 1 ml of sircol dye reagent were mixed for 30 minutes. […] After discarding the supernatant, 1 ml of Alkali reagent was added and absorbance was measured at 555 nm."}, "[8]": {"tested_on": "α-SMA, Collagen I, PAI-1, Acetylated H3", "experiment": "Western blot of fibrosis markers and Acetylated H3 in lung tissue of polyhexamethylene guanidine-induced pulmonary fibrosis mouse model", "conditions": "PHMG model, 15, 30, 60 mg/kg intraperitoneally for 2 weeks, western blot densitometry", "protocol": "as §2, with “a polyhexamethylene guanidine (PHMG)” for “a bleomycin”, “a polyhexamethylene guanidine-administered” for “a bleomycin-administered”, “of polyhexamethylene guanidine,” for “of bleomycin,”, “and 1” for “and 2”, “mg/kg polyhexamethylene guanidine” for “mg/kg bleomycin”\nas §3, §4"}},
  "data": [
    {"smiles": "CN(C)CCCNC(=O)/C(=C/CCCCC(=O)NO)COc1cccc2ccccc12", "note": "[CG200745, (E)-N1-(3-(dimethylamino)propyl)-N8-hydroxy-2-((naphthalene-1-yloxy)methyl)oct-2-enediamide]", "values": [
      {"measurement": "fibrosis progression in the kidney (histopathology)", "setting": "[1]", "result": "inhibited"},
      {"measurement": "reduction of α-SMA expression (real-time PCR)", "setting": "[2]", "result": "≥ 50", "unit": "%"},
      {"measurement": "degree of fibrosis and collagen accumulation increased by bleomycin treatment (lung histopathology)", "setting": "[3]", "result": "significantly decreased in CG200745 concentration-dependent manner and normalized"},
      {"measurement": "collagen in bronchoalveolar lavage fluid increased by bleomycin treatment (sircol assay)", "setting": "collagen [4]", "result": "significantly decreased in CG200745 concentration-dependent manner"},
      {"measurement": "expression levels of fibrosis markers (α-SMA, Collagen I, PAI-1) increased by bleomycin treatment", "setting": "[5]; lung tissue", "result": "reduced in CG200745 concentration-dependent manner"},
      {"measurement": "level of histone acetylation (Acetylated H3) in lung tissue", "setting": "[5]", "result": "increased"},
      {"measurement": "polyhexamethylene guanidine-induced pulmonary fibrosis (lung histopathology)", "setting": "[6]", "result": "suppressed in CG200745 concentration-dependent manner and normalized"},
      {"measurement": "collagen in bronchoalveolar lavage fluid increased by polyhexamethylene guanidine (sircol assay)", "setting": "collagen [7]", "result": "significantly decreased in CG200745 concentration-dependent manner"},
      {"measurement": "expression levels of fibrosis markers (α-SMA, Collagen I, PAI-1) increased by polyhexamethylene guanidine treatment", "setting": "[8]; lung tissue", "result": "reduced in CG200745 concentration-dependent manner"},
      {"measurement": "level of histone acetylation (Acetylated H3) in lung tissue", "setting": "[8]", "result": "increased"}
    ]}
  ]
}
